In patent publication US7521418B2, “Use of a polyene macrolide antifungal agent in combination with a glycopeptide antibacterial agent” (Theravance, Inc., priority 2003, dated 2009):

Legend:
Assay in all cases: Checkerboard MIC assay, FICI
Conditions in all cases: combination with Compound 1
G. candidum ATCC 62231 = assay type: cell-based, Geotricium candidum
From the text: (§1) The following assay was used to determine the minimum inhibitory concentration (MIC) and fractional inhibitory concentration index (FICI) for combinations of an antifungal agent and a glycopeptide antibacterial agent. This assay and methods for calculating FICI are well known in the art. See, for example, Eliopoulos, E. G. and R. Moellering, Jr. “Antimicrobial Combinations” in Antibiotics in Laboratory Medicine, edited by V. Lorian, 4th Ed., Williams & Wilkins, Baltimore, MD, pp. 330-396 (1996); […] et al., Antimicrobial Agents and Chemotherapy 47(4):1416-1418 (2003); or […] et al., Antimicrobial Agents and Chemotherapy 46(10):3323-3326 (2002). […] The MIC of the glycopeptide antibacterial agent determined from this experiment was used in FIC calculations. […]

P. boydii ATCC 38283 = assay type: cell-based, Pseudallescheria boydii
From the text: as §1

[1] = tested on: F. moniliforme ATCC 38159; assay type: cell-based, Fusarium moniliforme
From the text: as §1

[2] = tested on: M. circinelloides ATCC 26759; assay type: cell-based, Mucor circinelloides
From the text: as §1

Row | SMILES | FICI (G. candidum ATCC 62231) | FICI (P. boydii ATCC 38283) | FICI [1] | FICI [2]
1 | C[C@@H]1[C@H](O)[C@@H](C)/C=C/C=C/C=C/C=C/C=C/C=C/C=C/[C@H](O[C@@H]2O[C@H](C)[C@@H](O)[C@H](N)[C@@H]2O)C[C@@H]2O[C@](O)(C[C@@H](O)C[C@@H](O)[C@H](O)CC[C@@H](O)C[C@@H](O)CC(=O)O[C@H]1C)C[C@H](O)[C@H]2C(=O)O [Amphotericin B] | 0.63 | 0.38 | 0.53 | 0.26
2 | C[C@@H]1[C@H](O)[C@@H](C)/C=C/C=C/CC/C=C/C=C/C=C/C=C/C(O[C@H]2O[C@H](C)[C@@H](O)[C@H](N)[C@@H]2O)CC2O[C@](O)(CC(O)C(O)CCC(O)CC(O)CC(O)CC(=O)O[C@H]1C)CC(O)C2C(=O)O (some centres unmarked) [Nystatin] | 0.31 | 0.38 | 0.51 | 0.28
